Assays:
ROS1-positive NSCLC = conditions: NSCLC patients harboring ROS1 rearrangements; cited from earlier work
HCC78 NSCLC cells = test: MTT assay, cell viability of HCC78 cells; type: cell-based
Method: (§1) To show the highly cytotoxic and selective properties of the present compound of Formula (Ic), HCC78 NSCLC cells and normal lung epithelial cells (BEAS-2B) were treated with the compound of Formula (Ic) and respective effects were observed. HCC78 NSCLC cells are non-small cell lung cancer cells with a ROS1 gene fusion. HCC78 cells were obtained from the American Type Culture Collection (ATCC) and cultured in environment of 5% CO2 at 37° C. in RPMI-1640 medium supplemented with 10% fetal bovine serum (FBS), 100 units/mL penicillin, and 100 μg/mL streptomycin. The compound of Formula (Ic) was dissolved in DMSO. Using a MTT assay, 3000 HCC78 or BEAS-2B cells were seeded on 96-well plates, cultured overnight for cell adhesion, and treated with DMSO or various concentrations of the compound of Formula (Ic) for 72 h. Three independent tests were performed. 10 μL of MTT (5 mg/mL; Sigma) were added to each well, and incubation continued for another 4 h. Then the dark blue crystals were dissolved in 100 μL of the resolved solution (10% SDS and 0.1 mM HCL). The absorbance was measured at 570 nm by a microplate reader (Tecan, Morrisville, N.C., USA).
(§2) The cell viability was calculated relative to untreated controls, with results based on at least three independent experiments. […] The compound of Formula (Ic) exerts a 3.75-fold cytotoxicity towards cancer cells than normal healthy cells.

BEAS-2B cells [1] = test: MTT assay, normal lung epithelial cells (Example 1A); type: cell-based; conditions: Homo sapiens, 72 h treatment
Method: as §1, §2

H2228 NSCLC cells = test: MTT assay, cell viability of H2228 cells; type: cell-based; conditions: Homo sapiens, NCI-H2228, 72 h treatment
Method: (§3) H2228 (which express EML4-ALK fusion kinases, namely variant 3) and BEAS-2B cells were obtained from the American Type Culture Collection and cultured in environment of 5% CO2 at 37° C. in RPMI-1640 medium supplemented with 10% fetal bovine serum (FBS), 100 units/mL penicillin, and 100 μg/mL streptomycin.
(§4) The cytotoxicity effect of the compound of Formula (Ic) on H2228 NSCLC cells (harboring ALK fusion) and human bronchial epithelial (BEAS-2B) have been analyzed. H2228 cells were cultured in 96-well plates at a density of 3×10^3 cells/well, and were cultured overnight for cell adhesion. Then the cells were treated with DMSO or various concentrations of the compound of Formula (Ic) for 72 h. To each well 10 μL MTT (5 mg/mL) (Sigma) was added and the cells were incubated for another 4 h at 37° C., followed by adding 100 μL acidic isopropanol (10% SDS, and 0.01 mol/L HCl). Finally, the optical density (OD) of each well was measured at 570 nm by the Microplate Reader (Epoch, Winooski, USA). The cell viability was calculated relative to untreated controls, with results based on at least three independent experiments.

BEAS-2B cells [2] = test: MTT assay, human bronchial epithelial cells (Example 2A); type: cell-based; conditions: 72 h treatment
Method: as §3, §4

HCC78 cells = test: Apoptosis assay (Annexin-V FITC/PI, fluorescence images and flow cytometry) in HCC78 cells; type: cell-based; conditions: 72 h
Method: HCC78 cells (1.0×10^5 cells/well) were allowed to attach to a 6-well plate for 24 h, and the cells were treated with the various concentrations of the compound of Formula (Ic) for additional 72 h. At the end of incubation, the cells were harvested by trypsinization and washed twice with ice-cold PBS. After centrifugation and removal of the supernatants, cell pellets were resuspended in 100 μL 1× Annexin-binding buffer, 2 μL Annexin-V FITC and 2 μL PI (100 μg/ml) were added and incubated in the dark at room temperature for 15 min before further addition of 400 μL of 1× Annexin-binding buffer. The stained cells were analyzed quantitatively using a flow cytometer (BD Biosciences, San Jose, Calif., USA). […] Such cell morphology indicates apoptosis.

ROS1 fusion kinase = test: Western blot of ROS1 phosphorylation and downstream signaling in HCC78 cells; type: cell-based; conditions: HCC78 cells, 1.25, 2.5, 5 μM, 72 h
Method: The cells were planted on 6-well plate, allowed to attach for 24 h, and treated with the various concentrations of the compound of Formula (Ic) for 72 h. Cells were washed twice with cold PBS then lysed in RIPA lysis buffer containing protease and phosphatase inhibitors. Protein concentration of the cell lysates was measured using the Bio-Rad protein Assay kit (Bio-Rad, 7 Philadelphia, Pa., USA). After equalizing the protein concentrations of the samples, 5× laemmli buffer was added and the samples were boiled at 100° C. for 5 min. Equal amounts of protein samples (30 μg) were subjected to SDS-PAGE of a 10% gel. The separated proteins were transferred to a nitrocellulose (NC) membrane, which was then exposed to 5% non-fat dried milk in TBS containing 0.1% Tween (0.1% TBST) for 1 h at room temperature, followed by overnight incubation at 4° C. with primary antibodies to GAPDH, phospho-AKT, AKT, phospho-ROS1, ROS1, phospho-ERK, ERK, phospho-STAT3, STAT3. After washing three times by TBST (5 mins/time), the membranes were incubated for 1 h at room temperature with the secondary fluorescent antibodies (1:10000 dilutions) to rabbit or mouse. The signal intensity of the membranes was detected by an LI-COR Odessy scanner (Belfast, Me., USA).

H2228 cells [3] = test: Apoptosis assay (Annexin-V FITC/PI flow cytometry) in H2228 cells; type: cell-based; conditions: 48 h
Method: H2228 cells (1.0×10^5 cells/well) were allowed to attach in a 6-well plate for 24 h. The cells were treated with various concentrations of the compound of Formula (Ic), namely 1.25, 2.5 and 5 μM, for 48 h. Subsequently, cells were trypsinized, washed with PBS twice, then the cells were resuspended in a total volume of 100 μL binding buffer with 2 μL Annexin-V FITC and 5 μL propidine iodide (PI). Finally, the cells were gently mixed and incubated in the dark at room temperature for 15 min, before further addition of 400 μL of 1× Annexin-binding buffer, the number of apoptotic cells was quantified using a Flow Cytometer (BD Biosciences, San Jose, Calif., USA) within 1 h. Data were analyzed by Flow Jo software.

H2228 cells [4] = test: Colony formation assay in H2228 cells; type: cell-based; conditions: 14 days
Method: H2228 cells were seeded to six-well plate (1000/well). Then cells were exposed to various doses of the compound of Formula (Ic), namely 1.25, 2.5 and 5 μM. After 14 days, colonies were fixed with 4% paraformaldehyde for 15 min and stained with crystal violet for 10-15 min. Finally, the staining solution was slowly washed off with water and the cells were air dried. Clones with more than 50 cells were counted under a microscope.

ALK fusion kinase = test: Western blot of ALK phosphorylation and downstream signaling in H2228 cells; type: cell-based; conditions: H2228 cells, 1.25, 2.5, 5 μM
Method: Equal amounts of the protein samples (20-40 μg per lane) were separated on a 10% SDS-PAGE gel, then proteins were transferred onto Nitrocellulose (NC) membrane at 300 mA for 2.5 hours at 4° C., the membranes was probed with primary antibodies overnight at 4° C. which was then exposed to 5% non-fat dry milk in TBST for 1 h at room temperature with constant agitation and, then, rabbit or mouse fluorescent antibodies (1:1000) were added to the membrane at room temperature for 1 h. Visualization was performed using a LI-COR Odessy scanner (Belfast, Me., USA). All primary antibodies were diluted 1:1000, while their recommended secondary antibodies were diluted 1:10000.

IC50 (HCC78 NSCLC cells; Homo sapiens, HCC78 cells, MTT, 72 h treatment)	IC50 (H2228 NSCLC cells)	Structure (SMILES)	median progression-free survival (ROS1-positive NSCLC)	objective response rate (ROS1-positive NSCLC)	fold cytotoxicity towards cancer cells than normal healthy cells (HCC78 NSCLC cells; HCC78 versus BEAS-2B, 72 h)	IC50 (BEAS-2B cells [1])	IC50 (BEAS-2B cells [2])	cell morphology indicating apoptosis (fluorescence images) (HCC78 cells; HCC78 cells, 2.5 μM)	induction of apoptosis (flow cytometry) (HCC78 cells; HCC78 cells, 1.25, 2.5, 5 μM)	ROS1 phosphorylation and downstream signaling involving Erk1/2, STAT3 and AKT (ROS1 fusion kinase)	induction of apoptosis (flow cytometry) (H2228 cells [3]; H2228 cells, 1.25, 2.5, 5 μM)	level of cell apoptosis compared with control group (H2228 cells [3]; H2228 cells, concentration of at least 5 μM)	formation of H2228 cell colonies (H2228 cells [4]; 5 μM)	formation of H2228 cell colonies (H2228 cells [4]; 1.25, 2.5, 5 μM)	ALK phosphorylation and downstream PI3K/AKT, MEK/ERK and JAK/STAT3 signaling pathways (ALK fusion kinase)
		C[C@@H](Oc1cc(-c2cnn(C3CCNCC3)c2)cnc1N)c1c(Cl)ccc(F)c1Cl [crizotinib]	19.2 months	72%											
1.62 µM	2.71 ± 0.92 µM	COc1ccc(CNC(=O)Cn2nc(-c3ccccc3)c3cnc4ccccc4c32)cc1 [compound of Formula (Ic)]			3.75 fold	6.08 µM	6.51 ± 1.08 µM	detach from the surface and are small	induction of apoptosis on HCC78 cells in a concentration dependent manner	dose-dependent decrease	induction of apoptosis of H2228 cells in a concentration-dependent manner	significant levels of cell apoptosis	no visible colonies	inhibited the formation of H2228 cell colonies in a dose-dependent manner	significant suppression

Reference: patent publication US9782400B2, “Oncogenic ROS1 and ALK kinase inhibitor” (Macau University of Science and Technology, priority 2015, dated 2017)
